According to patent US8088815B2, “Spiroindolinone pyrrolidines” (Hoffman-La Roche Inc., priority 2009, dated 2012):
pIC50: −log10 of the molar value.

Biological target: interaction between p53 and MDM2 proteins (Homo sapiens, UniProt Q00987)
Test: HTRF assay of inhibition of the p53-MDM2 interaction (GST-MDM2 / biotinylated p53 peptide)
Format: binding
Conditions: recombinant GST-tagged MDM2 and biotinylated p53 peptide, bsa:0.02%

interaction between p53 and MDM2 proteins, sequence (Q00987 whole entry): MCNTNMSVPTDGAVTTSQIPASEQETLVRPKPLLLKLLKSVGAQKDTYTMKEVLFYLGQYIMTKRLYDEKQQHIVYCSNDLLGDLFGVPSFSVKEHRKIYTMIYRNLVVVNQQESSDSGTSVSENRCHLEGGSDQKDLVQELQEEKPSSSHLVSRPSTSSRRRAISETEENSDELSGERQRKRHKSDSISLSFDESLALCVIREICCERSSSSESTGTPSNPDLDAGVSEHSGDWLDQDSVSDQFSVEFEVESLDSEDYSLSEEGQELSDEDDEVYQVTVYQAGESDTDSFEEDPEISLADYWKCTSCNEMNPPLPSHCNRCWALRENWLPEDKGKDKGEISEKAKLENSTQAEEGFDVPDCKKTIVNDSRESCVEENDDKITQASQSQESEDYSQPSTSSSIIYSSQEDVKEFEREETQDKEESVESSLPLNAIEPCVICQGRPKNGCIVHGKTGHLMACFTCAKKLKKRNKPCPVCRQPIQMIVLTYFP

pIC50	Compound
8.22	CC(=O)c1ccc(NC(=O)[C@@H]2N[C@@H](CC(C)(C)C)[C@@]3(C(=O)Nc4cc(Cl)ccc43)[C@H]2c2cccc(Cl)c2F)cc1 [Example 12, chiral (2′S,3′R,4′S,5′R)-6-chloro-4′-(3-chloro-2-fluoro-phenyl)-2′-(2,2-dimethyl-propyl)-2-oxo-1,2-dihydro-spiro[indole-3,3′-pyrrolidine]-5′-carboxylic acid (4-acetyl-phenyl)-amide]
8.40	COc1cc(NC(=O)[C@@H]2N[C@@H](CC(C)(C)C)[C@@]3(C(=O)Nc4cc(Cl)ccc43)[C@H]2c2cccc(Cl)c2F)ccc1C(=O)O [Example 17, chiral 4-{[(2′S,3′R,4′S,5′R)-6-chloro-4′-(3-chloro-2-fluoro-phenyl)-2′-(2,2-dimethyl-propyl)-2-oxo-1,2-dihydro-spiro[indole-3,3′-pyrrolidine]-5′-carbonyl]-amino}-2-methoxy-benzoic acid]
8.15	CC(C)(C)C[C@@H]1N[C@@H](C(=O)Nc2ccc(OCCO)cc2)[C@H](c2cccc(Cl)c2F)[C@]12C(=O)Nc1cc(Cl)ccc12 [Example 20, chiral (2′S,3′R,4′S,5′R)-6-chloro-4′-(3-chloro-2-fluoro-phenyl)-2′-(2,2-dimethyl-propyl)-2-oxo-1,2-dihydro-spiro[indole-3,3′-pyrrolidine]-5′-carboxylic acid [4-(2-hydroxy-ethoxy)-phenyl]-amide]
8.30	COc1cc(NC(=O)[C@@H]2N[C@@H](CC(C)(C)C)[C@@]3(C(=O)Nc4cc(Cl)ccc43)[C@H]2c2cccc(Cl)c2F)ccc1C(N)=O [Example 23, chiral (2′S,3′R,4′S,5′R)-6-chloro-4′-(3-chloro-2-fluoro-phenyl)-2′-(2,2-dimethyl-propyl)-2-oxo-1,2-dihydro-spiro[indole-3,3′-pyrrolidine]-5′-carboxylic acid (4-carbamoyl-3-methoxy-phenyl)-amide]
8.22	CC(C)(C)C[C@@H]1N[C@@H](C(=O)Nc2ccc(C(N)=O)c(Cl)c2)[C@H](c2cccc(Cl)c2F)[C@]12C(=O)Nc1cc(Cl)ccc12 [Example 26, chiral (2′S,3′R,4′S,5′R)-6-chloro-4′-(3-chloro-2-fluoro-phenyl)-2′-(2,2-dimethyl-propyl)-2-oxo-1,2-dihydro-spiro[indole-3,3′-pyrrolidine]-5′-carboxylic acid (4-carbamoyl-3-chloro-phenyl)-amide]
8.30	CN(C)C(=O)c1ccc(NC(=O)[C@@H]2N[C@@H](CC(C)(C)C)[C@@]3(C(=O)Nc4cc(Cl)ccc43)[C@H]2c2cccc(Cl)c2F)cc1 [Example 35, chiral (2′S,3′R,4′S,5′R)-6-chloro-4′-(3-chloro-2-fluoro-phenyl)-2′-(2,2-dimethyl-propyl)-2-oxo-1,2-dihydro-spiro[indole-3,3′-pyrrolidine]-5′-carboxylic acid (4-dimethylcarbamoyl-phenyl)-amide]
8.22	CC(C)(C)C[C@@H]1N[C@@H](C(=O)Nc2ccc(C(N)=O)cc2)[C@H](c2cccc(Cl)c2F)[C@]12C(=O)Nc1cc(Cl)c(F)cc12 [Example 50, chiral (2′S,3′R,4′S,5′S)-6-chloro-4′-(3-chloro-2-fluoro-phenyl)-2′-(2,2-dimethyl-propyl)-5-fluoro-2-oxo-1,2-dihydro-spiro[indole-3,3′-pyrrolidine]-5′-carboxylic acid (4-carbamoyl-phenyl)-amide]
8.15	CC(C)(C)C[C@@H]1N[C@@H](C(=O)Nc2ccc(C(N)=O)cc2F)[C@H](c2cccc(Cl)c2F)[C@]12C(=O)Nc1cc(Cl)ccc12 [Example 54, chiral (2′S,3′R,4′S,5′R)-6-chloro-4′-(3-chloro-2-fluoro-phenyl)-2′-(2,2-dimethyl-propyl)-2-oxo-1,2-dihydro-spiro[indole-3,3′-pyrrolidine]-5′-carboxylic acid (4-carbamoyl-2-fluoro-phenyl)-amide]
8.30	COc1cc(C(N)=O)ccc1NC(=O)[C@@H]1N[C@@H](CC(C)(C)C)[C@@]2(C(=O)Nc3cc(Cl)ccc32)[C@H]1c1cccc(Cl)c1F [Example 60, chiral (2′S,3′R,4′S,5′R)-6-chloro-4′-(3-chloro-2-fluoro-phenyl)-2′-(2,2-dimethyl-propyl)-2-oxo-1,2-dihydro-spiro[indole-3,3′-pyrrolidine]-5′-carboxylic acid (4-carbamoyl-2-methoxy-phenyl)-amide]
8.22	CC(C)(C)C[C@@H]1N[C@@H](C(=O)Nc2ccc(C(N)=O)cc2)[C@H](c2cccc(Cl)c2)[C@]12C(=O)Nc1cc(Cl)ccc12 [Example 65B, chiral (2′S,3′R,4′R,5′R)-6-chloro-4′-(3-chloro-phenyl)-2′-(2,2-dimethyl-propyl)-2-oxo-1,2-dihydro-spiro[indole-3,3′-pyrrolidine]-5′-carboxylic acid (4-carbamoyl-phenyl)-amide]
8.22	CC(C)(C)C[C@@H]1N[C@@H](C(=O)Nc2ccc(C(N)=O)cc2)[C@H](c2cccc(Cl)c2F)[C@]12C(=O)Nc1cc(Cl)cc(F)c12 [Example 74, chiral (2′S,3′R,4′S,5′R)-6-chloro-4′-(3-chloro-2-fluoro-phenyl)-2′-(2,2-dimethyl-propyl)-4-fluoro-2-oxo-1,2-dihydro-spiro[indole-3,3′-pyrrolidine]-5′-carboxylic acid (4-carbamoyl-phenyl)-amide]
8.30	COc1cc(C(N)=O)ccc1NC(=O)[C@@H]1N[C@@H](CC(C)(C)C)[C@@]2(C(=O)Nc3cc(Cl)cc(F)c32)[C@H]1c1cccc(Cl)c1F [Example 77, chiral (2′S,3′R,4′S,5′R)-6-chloro-4′-(3-chloro-2-fluoro-phenyl)-2′-(2,2-dimethyl-propyl)-4-fluoro-2-oxo-1,2-dihydro-spiro[indole-3,3′-pyrrolidine]-5′-carboxylic acid (4-carbamoyl-2-methoxy-phenyl)-amide]
8.30	COc1cc(C(=O)O)ccc1NC(=O)[C@@H]1N[C@@H](CC(C)(C)C)[C@@]2(C(=O)Nc3cc(Cl)ccc32)[C@H]1c1cccc(Cl)c1F [Example 111, chiral 4-{[(2′S,3′R,4′S,5′R)-6-chloro-4′-(3-chloro-2-fluoro-phenyl)-2′-(2,2-dimethyl-propyl)-2-oxo-1,2-dihydro-spiro[indole-3,3′-pyrrolidine]-5′-carbonyl]-amino}-3-methoxy-benzoic acid]
8.30	COc1cc(OCCO)ccc1NC(=O)[C@@H]1N[C@@H](CC(C)(C)C)[C@@]2(C(=O)Nc3cc(Cl)ccc32)[C@H]1c1cccc(Cl)c1F [Example 134, chiral (2′S,3′R,4′S,5′R)-6-chloro-4′-(3-chloro-2-fluoro-phenyl)-2′-(2,2-dimethyl-propyl)-2-oxo-1,2-dihydro-spiro[indole-3,3′-pyrrolidine]-5′-carboxylic acid [4-(2-hydroxy-ethoxy)-2-methoxy-phenyl]-amide]
8.30	CC(C)(C)C[C@@H]1N[C@@H](C(=O)Nc2ccc(C#N)cc2)[C@H](c2cccc(Cl)c2F)[C@]12C(=O)Nc1cc(Cl)ccc12 [Example 137, chiral (2′S,3′R,4′S,5′R)-6-chloro-4′-(3-chloro-2-fluoro-phenyl)-2′-(2,2-dimethyl-propyl)-2-oxo-1,2-dihydro-spiro[indole-3,3′-pyrrolidine]-5′-carboxylic acid (4-cyano-phenyl)-amide]
